Data from patent publication US11746100B2 (GLOBAL BLOOD THERAPEUTICS, INC., priority 2020, dated 2023).

Molecular target: T1, human ferroportin (Homo sapiens, UniProt Q9NP59)
T1 construct: luciferase reporter (read with the Nano-Glo Luciferase Assay System); expressed in transfected cells; host or cells: CHO cells, stably transfected, expression induced with doxycycline
T1 sequence (Q9NP59 1-571): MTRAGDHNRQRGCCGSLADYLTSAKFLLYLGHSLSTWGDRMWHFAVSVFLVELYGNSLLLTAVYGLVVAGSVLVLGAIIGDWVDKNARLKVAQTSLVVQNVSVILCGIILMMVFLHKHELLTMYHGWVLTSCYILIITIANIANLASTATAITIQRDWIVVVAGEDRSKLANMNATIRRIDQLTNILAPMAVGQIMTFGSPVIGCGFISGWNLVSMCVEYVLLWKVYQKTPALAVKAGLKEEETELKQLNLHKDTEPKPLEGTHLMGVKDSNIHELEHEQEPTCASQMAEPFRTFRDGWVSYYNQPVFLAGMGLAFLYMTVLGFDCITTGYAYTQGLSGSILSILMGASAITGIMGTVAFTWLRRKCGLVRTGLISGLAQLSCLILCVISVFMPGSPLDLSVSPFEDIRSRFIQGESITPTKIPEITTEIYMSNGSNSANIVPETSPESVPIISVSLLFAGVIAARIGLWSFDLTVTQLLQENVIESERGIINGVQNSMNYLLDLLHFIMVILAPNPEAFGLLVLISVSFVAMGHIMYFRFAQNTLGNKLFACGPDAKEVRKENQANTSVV
Experiment: Biological in-vitro ferroportin internalization assay (luciferase reporter)
Format: cell-based
Details: average pEC50; stably-transfected CHO cell line expressing human ferroportin tagged to a luciferase reporter; 6 h incubation with test compound
Outline: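 Read-out is Nano-Glo luciferase signal after 6 h compound exposure, with average pEC50 derived. Cells are a stable CHO line carrying luciferase-tagged human ferroportin, pre-loaded 24 h with ferric ammonium citrate and doxycycline-induced for 24 h.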

| SMILES | pEC50 |
| --- | --- |
| CN1CC[C@H](Oc2ccnc(-c3nc4c(c(N(C)CC(=O)NC(C)(C)C)n3)CCC4)c2)C1 [Compound 438, N-tert-butyl-2-{methyl[2-(4-{[(3S)-1-methylpyrrolidin-3-yl]oxy}pyridin-2-yl)-5H,6H,7H-cyclopenta[d]pyrimidin-4-yl]amino}acetamide] | 7.7 |
| CN(CC(=O)NC(C)(C)C)c1nc(-c2cc(OCCN3CC[C@H](F)C3)ccn2)nc2c1CCC2 [Compound 474, N-tert-butyl-2-{[2-(4-{2-[(3S)-3-fluoropyrrolidin-1-yl]ethoxy}pyridin-2-yl)-5H,6H,7H-cyclopenta[d]pyrimidin-4-yl](methyl)amino}acetamide] | 8.3 |
| CN1CCN(C(=O)CN(C)c2nc(-c3cc4ccccc4cn3)nc3c2CCC3)CC1 [Compound 256, 2-{[2-(isoquinolin-3-yl)-5H,6H,7H-cyclopenta[d]pyrimidin-4-yl](methyl)amino}-1-(4-methylpiperazin-1-yl)ethan-1-one] | 6.6 |
| CN(CC(=O)NC(C)(C)C)c1nc(-c2cc(O[C@@H]3CCN(CCF)C3)ccn2)nc2c1CCC2 [Compound 497, N-tert-butyl-2-{[2-(4-{[(3R)-1-(2-fluoroethyl)pyrrolidin-3-yl]oxy}pyridin-2-yl)-5H,6H,7H-cyclopenta[d]pyrimidin-4-yl](methyl)amino}acetamide] | 8.2 |
| CN(CC(=O)NC(C)(C)C)c1nc(-c2cc3cn[nH]c3cn2)nc2c1CCC2 [Compound 110, N-tert-butyl-2-[methyl(2-{1H-pyrazolo[3,4-c]pyridin-5-yl}-5H,6H,7H-cyclopenta[d]pyrimidin-4-yl)amino]acetamide] | 7.9 |
| C[C@H](C(=O)NC1(C)CC1)N(C)c1nc(-c2ccccn2)nc2c1CCC2 [Compound 204, (2R)-2-{methyl[2-(pyridin-2-yl)-5H,6H,7H-cyclopenta[d]pyrimidin-4-yl]amino}-N-(1-methylcyclopropyl)propanamide] | 6.9 |
| CN(CC(=O)Nc1ccn(C)n1)c1nc(-c2cc3ccccc3cn2)nc2c1CCC2 [Compound 237, 2-{[2-(isoquinolin-3-yl)-5H,6H,7H-cyclopenta[d]pyrimidin-4-yl](methyl)amino}-N-(1-methyl-1H-pyrazol-3-yl)acetamide] | 7.1 |
| CN(c1nc(-c2ccccn2)nc2c1CCC2)[C@@H]1CCN(c2ccccc2)C1=O [Compound 130, (3R)-3-{methyl[2-(pyridin-2-yl)-5H,6H,7H-cyclopenta[d]pyrimidin-4-yl]amino}-1-phenylpyrrolidin-2-one] | 6.9 |
| COc1ccnc(-c2nc3c(c(N(C)CC(=O)NC4(C(F)(F)F)CC4)n2)CCC3)c1 [Compound 99, 2-{[2-(4-methoxypyridin-2-yl)-5H,6H,7H-cyclopenta[d]pyrimidin-4-yl](methyl)amino}-N-[1-(trifluoromethyl)cyclopropyl]acetamide] | 7.3 |
| CN(C)CCOc1ccnc(-c2nc3c(c(NCC(=O)NC(C)(C)C)n2)CCC3)c1 [Compound 484, N-tert-butyl-2-[(2-{4-[2-(dimethylamino)ethoxy]pyridin-2-yl}-5H,6H,7H-cyclopenta[d]pyrimidin-4-yl)amino]acetamide] | 7 |
| COc1ccc(NC(=O)CN(C)c2nc(-c3cc4ccncc4cn3)nc3c2CCC3)cn1 [Compound 268, N-(6-methoxypyridin-3-yl)-2-{methyl[2-(2,7-naphthyridin-3-yl)-5H,6H,7H-cyclopenta[d]pyrimidin-4-yl]amino}acetamide] | 6 |
| Cc1ccnc(-c2nc3c(c(N4CCCCCC4)n2)CCC3)c1 [Compound 14, 1-[2-(4-methylpyridin-2-yl)-5H,6H,7H-cyclopenta[d]pyrimidin-4-yl]azepane] | 6.8 |
| CN(CC(=O)NC(C)(C)C)c1nc(-c2ccccn2)nc2c1CCCC2 [Compound 23, N-tert-butyl-2-{methyl[2-(pyridin-2-yl)-5,6,7,8-tetrahydroquinazolin-4-yl]amino}acetamide] | 6.9 |
| COc1ccc(NC(=O)CN(C)c2nc(-c3cc(OCC(C)(C)O)ccn3)nc3c2CCC3)nc1 [Compound 214, 2-({2-[4-(2-hydroxy-2-methylpropoxy)pyridin-2-yl]-5H,6H,7H-cyclopenta[d]pyrimidin-4-yl}(methyl)amino)-N-(5-methoxypyridin-2-yl)acetamide] | 7.8 |
| CC(C)NC(=O)[C@@H](C)N(C)c1nc(-c2cc(OCCN(C)C)ccn2)nc2c1CCC2 [Compound 433, (2R)-2-[(2-{4-[2-(dimethylamino)ethoxy]pyridin-2-yl}-5H,6H,7H-cyclopenta[d]pyrimidin-4-yl)(methyl)amino]-N-(propan-2-yl)propanamide] | 8.0 |
| COc1ccc(NC(=O)CN(C)c2nc(-c3cc(OCCO)ccn3)nc3c2CCC3)cn1 [Compound 187, 2-({2-[4-(2-hydroxyethoxy)pyridin-2-yl]-5H,6H,7H-cyclopenta[d]pyrimidin-4-yl}(methyl)amino)-N-(6-methoxypyridin-3-yl)acetamide] | 7.9 |
| CC(C)NC(=O)CN(C)c1nc(-c2cc(OCCN3CCOCC3=O)ccn2)nc2c1CCC2 [Compound 436, 2-[methyl(2-{4-[2-(3-oxomorpholin-4-yl)ethoxy]pyridin-2-yl}-5H,6H,7H-cyclopenta[d]pyrimidin-4-yl)amino]-N-(propan-2-yl)acetamide] | 7.3 |
| COc1ccnc(-c2nc3c(c(N(C)CC(=O)Nc4cncnc4)n2)CCC3)c1 [Compound 178] | 7.2 |
| CN(CC(=O)Nc1ccc(Cl)cc1)c1nc(-c2cc(OCCO)ccn2)nc2c1CCC2 [Compound 339, N-(4-chloropehnyl)-2-({2-[4-(2-hydroxyethoxy)pyridin-2-yl]-5H,6H,7H-cyclopenta[d]pyrimidin-4-yl}(methyl)amino)acetamide] | 8.2 |
| CN(CC(=O)NC(C)(C)C)c1nc(-c2cc(OCC(C)(C)N(C)C)ccn2)nc2c1CCC2 [Compound 404, N-tert-butyl-2-[(2-{4-[2-(dimethylamino)-2-methylpropoxy]pyridin-2-yl}-5H,6H,7H-cyclopenta[d]pyrimidin-4-yl)(methyl)amino]acetamide] | 8 |
| CN(CC(=O)NC(C)(C)C)c1nc(-c2ccc(Cl)cn2)nc2c1CCC2 [Compound 300, N-tert-butyl-2-{[2-(5-chloropyridin-2-yl)-5H,6H,7H-cyclopenta[d]pyrimidin-4-yl](methyl)amino}acetamide] | 6.2 |
| COc1cccc(NC(=O)[C@@H](C)N(C)c2nc(-c3cn(C)cn3)nc3c2CCC3)c1 [Compound 278, (2R)—N-(3-methoxyphenyl)-2-{methyl[2-(1-methyl-1H-imidazol-4-yl)-5H,6H,7H-cyclopenta[d]pyrimidin-4-yl]amino}propanamide] | 7.8 |
| COc1ccc2cnc(-c3nc4c(c(N(C)CC(=O)NC(C)(C)C)n3)CCC4)cc2c1 [Compound 261, N-tert-butyl-2-{[2-(6-methoxyisoquinolin-3-yl)-5H,6H,7H-cyclopenta[d]pyrimidin-4-yl](methyl)amino}acetamide] | 7.6 |
| CN(CC(=O)NC(C)(C)C)c1nc(-c2cc(OC[C@@H]3COC(C)(C)O3)ccn2)nc2c1CCC2 [Compound 414, N-tert-butyl-2-{[2-(4-{[(4R)-2,2-dimethyl-1,3-dioxolan-4-yl]methoxy}pyridin-2-yl)-5H,6H,7H-cyclopenta[d]pyrimidin-4-yl](methyl)amino}acetamide] | 8.3 |
